In article PMC9099121, “Population pharmacokinetic and exposure‐response analyses from ALTA‐1L: Model‐based analyses supporting the brigatinib dose in ALK‐positive NSCLC” (Clinical and Translational Science, 2022):

What was measured:
[1] = in ALTA and ALTA-1L; cited from earlier work
[2] = set-up: method as in earlier work; settings: after administration of 180 mg q.d.; cited from earlier work
[3] = Linear regression of covariates versus post hoc steady-state AUC, ALTA-1L; format: in vivo, human; settings: for Percentage change in steady-state AUC relative to value at median covariate [95% CI] / Percentage change in median AUC (with 95% CI) relative to the most common reference category: 180 mg once daily
Method: (§1) Diagnostic plots were created to compare brigatinib PK in patients in ALTA‐1L (first‐line setting) and ALTA (second‐line setting). […] In exploratory analyses, relationships between covariates of interest and model‐based exposure estimates were evaluated using linear regression models with each covariate as a predictor.

[4] = Exposure-safety analysis and AE incidence, ALTA-1L; format: in vivo, human
Excerpt: […] AEs of interest selected for analysis included eight grade two or higher AEs (increased alanine aminotransferase [ALT], AST, or amylase; hyperglycemia; hypertension; bradycardia; rash; and pulmonary events [pneumonitis or ILD]), five grade three or higher AEs (increased CPK, AST, ALT, amylase, and lipase), and a composite grade three or higher AE end point that included grade three or higher CPK, AST, ALT, amylase, or lipase elevations; hyperglycemia; hypertension; bradycardia; rash; and pulmonary events.
AEs were included in the analysis if they occurred any time between the first day of brigatinib dosing and 30 days after the last dose. AEs were defined according to the National Cancer Institute Common Toxicity Criteria for Adverse Events version 4.03. The relationship between time‐averaged exposure and AE probability was examined using the same logistic regression models described for the exposure–clinical response analyses. Probability of an AE was plotted against exposure, with observed probabilities calculated by exposure quartiles.
The relationship between brigatinib exposure and time to first brigatinib dose reduction was also explored. A KM plot of time to first brigatinib dose reduction was generated, with survival curves binned by brigatinib exposure quartiles, where exposure was defined as the time‐averaged AUC to the first occurrence of dose reduction.

[5] = Population PK model post hoc estimates, ALTA (second-line); format: in vivo, human; settings: geometric mean (5th and 95th percentiles); ALTA n = 201
Excerpt: The previously developed population PK model[11] was used for population PK analyses of ALTA‐1L data. The previous analysis provided a robust and comprehensive characterization of brigatinib PK and sources of variability. Importantly, the previous analysis included 202 patients with ALK+ NSCLC that progressed on other ALK TKIs, representing a similar patient population to patients receiving first‐line brigatinib in ALTA‐1L. These considerations supported a Bayesian re‐estimation approach for deriving individual brigatinib PK parameters in ALTA‐1L using the previously reported model, and the model was applied without modification. In brief, the population PK model described brigatinib PK using a three‐compartment model with linear distribution and elimination kinetics and first‐order absorption preceded by a set of transit compartments.[11] The model included albumin concentration as a covariate on apparent oral clearance (CL/F). Bayesian re‐estimation was performed by setting initial model conditions to values of fixed effects and random effect variances previously estimated,[11] allowing for estimation of individual PK parameters based on the PK observations in the ALTA‐1L dataset.
as §1

[6] = test system: ALK+ NSCLC; experiment: Exposure-ORR/iORR logistic regression, ALTA-1L; format: in vivo, human
Excerpt: The exposure‐efficacy analyses related reported efficacy outcomes (blinded IRC [BIRC]‐assessed PFS, ORR, and iORR) to individual brigatinib exposures predicted using individual estimated PK parameters from the population PK model. Model‐based estimates of CL/F and actual dosing history were used to derive exposure metrics of interest. Several exposure metrics were considered, including both static and dynamic area under the concentration‐time curve (AUC) estimates (Methods S1).
For ORR and iORR, each patient was classified as a responder (i.e., achieving confirmed complete or partial systemic ORR or iORR response) or a nonresponder. Relationships between ORR and iORR and brigatinib exposure were analyzed using two static exposure metrics: time‐averaged AUC between the last two disease assessment scans preceding best confirmed response and time‐averaged AUC until best confirmed response (ORR or iORR). Exposure–clinical response relationships were characterized by logistic regression models. Predicted logistic regression curve and observed response rate in each brigatinib exposure quartile or tertile (along with associated 95% CIs) were plotted.
Time averaged AUC until best confirmed response (ORR or iORR)= Cumulative dose to best confirmed systemic ORR or intracranial iORR responseOral brigatinib clearance/ (days to best confirmed systemic or intracranial response)
Static metrics of time-averaged exposure between the last two disease assessment scans preceding PFS, ORR, or iORR, or censoring (refer to 2)

SMILES: COc1cc(N2CCC(N3CCN(C)CC3)CC2)ccc1Nc1ncc(Cl)c(Nc2ccccc2P(C)(C)=O)n1 [brigatinib]
- Incidence of any-grade AEs of elevated amylase [1]: 15% to 18
- Mean plasma elimination half-life [2]: 25 h
- Percentage change in steady-state AUC relative to value at median covariate [95% CI] ([3]; ALT, 5th percentile): 0 [-6; 4] %
- Percentage change in steady-state AUC relative to value at median covariate [95% CI] ([3]; ALT, 95th percentile): 2 [-21; 28] %
- Percentage change in steady-state AUC relative to value at median covariate [95% CI] ([3]; AST, 5th percentile): -4 [-9; 4] %
- Percentage change in steady-state AUC relative to value at median covariate [95% CI] ([3]; AST, 95th percentile): 11 [-11; 38] %
- Percentage change in steady-state AUC relative to value at median covariate [95% CI] ([3]; age, 5th percentile): -26 [-39; -15] %
- Percentage change in steady-state AUC relative to value at median covariate [95% CI] ([3]; age, 95th percentile): 27 [15; 43] %
- Percentage change in steady-state AUC relative to value at median covariate [95% CI] ([3]; albumin at baseline, 5th percentile): 3 [1; 14] %
- Percentage change in steady-state AUC relative to value at median covariate [95% CI] ([3]; albumin at baseline, 95th percentile): -2 [-5; 0] %
- Percentage change in steady-state AUC relative to value at median covariate [95% CI] ([3]; body weight, 5th percentile): 12 [3; 21] %
- Percentage change in steady-state AUC relative to value at median covariate [95% CI] ([3]; body weight, 95th percentile): -18 [-31; -5] %
- Percentage change in steady-state AUC relative to value at median covariate [95% CI] ([3]; eGFR, 5th percentile): 2 [-9; 14] %
- Percentage change in steady-state AUC relative to value at median covariate [95% CI] ([3]; eGFR, 95th percentile): -3 [-22; 15] %
- Percentage change in median AUC (with 95% CI) relative to the most common reference category ([3]; race: Asian (n = 53) vs White (n = 68)): -6 [-21; 12] %
- Percentage change in median AUC (with 95% CI) relative to the most common reference category ([3]; sex: Female (n = 60) vs Male (n = 63)): 15 [-3; 37] %
- Percentage change in steady-state AUC relative to value at median covariate [95% CI] ([3]; total bilirubin, 5th percentile): -11 [-24; 8] %
- Percentage change in steady-state AUC relative to value at median covariate [95% CI] ([3]; total bilirubin, 95th percentile): 17 [-12; 41] %
- Magnitude of relative difference in predicted AUC for each stratum compared with the most common stratum ([3]; categorical covariates (sex and race), ALTA-1L): less than 20%
- Magnitude of relative difference in predicted AUC at 5th and 95th percentiles relative to median of covariate ([3]; continuous covariates (age, eGFR, body weight, total bilirubin, AST, ALT), ALTA-1L): below 30%
- Variability in post hoc AUC, 5th and 95th percentiles relative to predicted AUC for a typical patient ([3]; overall ALTA-1L population, typical patient with albumin 41 g/L): −60% to +263
- Incidence of ALT increase, Grade ≥2 ([4]; n = 123): 18 (14.6) n (%)
- Incidence of ALT increase, Grade ≥3 ([4]; n = 123): 6 (4.9) n (%)
- Incidence of AST increase, Grade ≥2 ([4]; n = 123): 10 (8.1) n (%)
- Incidence of AST increase, Grade ≥3 ([4]; n = 123): 5 (4.1) n (%)
- Incidence of Amylase increase, Grade ≥2 ([4]; n = 123): 24 (19.5) n (%)
- Incidence of Amylase increase, Grade ≥3 ([4]; n = 123): 10 (8.1) n (%)
- Incidence of Bradycardia, Grade ≥2 ([4]; n = 123): 2 (1.6) n (%)
- Incidence of CPK increase, Grade ≥3 ([4]; n = 123): 32 (26.0) n (%)
- Incidence of Hyperglycemia, Grade ≥2 ([4]; n = 123): 2 (1.6) n (%)
- Incidence of Hypertension, Grade ≥2 ([4]; n = 123): 38 (30.9) n (%)
- Incidence of Lipase increase, Grade ≥3 ([4]; n = 123): 22 (17.9) n (%)
- Incidence of Pulmonary AEs (pneumonitis and interstitial lung disease), Grade ≥2 ([4]; n = 123): 2 (1.6) n (%)
- Incidence of Rash, Grade ≥2 ([4]; n = 123): 15 (12.2) n (%)
- Incidence of Any AE, Grade ≥3 ([4]; n = 123, composite of CPK, AST, ALT, amylase, lipase, hyperglycemia, hypertension, bradycardia, rash, pulmonary events): 64 (52.0) n (%)
- Odds ratio, grade ≥3 lipase increase per 1 µg·h/mL/day increase in exposure ([4]; time-averaged AUC across days 8 to 14 of cycle one, 95% CI: 1.00–1.10, p = 0.039): 1.05
- Odds ratio, grade ≥2 amylase increase per 1 µg·h/mL/day increase in exposure ([4]; time-averaged AUC across days 8 to 14 of cycle one, 95% CI: 1.01–1.11, p = 0.016): 1.06
- Estimated odds ratio, grade ≥3 lipase increase versus exposure ([4]; time-averaged AUC to first occurrence of an event, 95% CI: 0.99–1.07, p = 0.146): 1.03
- Estimated odds ratio, grade ≥2 amylase increase versus exposure ([4]; time-averaged AUC to first occurrence of an event, p = 0.094): 1.04 [0.99–1.09]
- Effect of exposure on time to first brigatinib dose reduction (KM plots by exposure quartiles) ([4]; time-averaged AUC to the first occurrence of dose reduction): did not show a discernible effect
- Albumin covariate effect on CL/F [5]: 0.939 (0.758, 1.09)
- CL/F [5]: 9.90 (4.06, 23.0) L/h
- Mean transit time [5]: 0.998 (0.584, 1.92) h
- Q2/F [5]: 12.6 (12.6, 12.6) L/h
- Q3/F [5]: 2.67 (2.67, 2.67) L/h
- V1/F [5]: 199 (86.0, 468) L
- V2/F [5]: 124 (78.3, 259) L
- V3/F [5]: 78.5 (78.5, 78.5) L
- Estimated probability of iORR ([6]; 5th exposure percentile following 180 mg dosing): 0.58
- Estimated probability of iORR ([6]; 50th (median) exposure percentile following 180 mg dosing): 0.83
- Estimated probability of iORR ([6]; 50th (median) exposure percentile following 180 mg dosing, listed as Brigatinib): 0.83 (0.58–0.99)
- Estimated probability of iORR ([6]; 95th exposure percentile following 180 mg dosing): 0.99
- Odds ratio for probability of achieving iORR versus exposure ([6]; time-averaged AUC between the last two disease assessments preceding best confirmed intracranial response, 95% CI: 1.01–1.28, p = 0.049, n = 42): 1.13
- Odds ratio for probability of achieving ORR versus exposure ([6]; time-averaged AUC between the last two disease assessments preceding best confirmed objective response, 95% CI: 0.93–1.01, p = 0.108): 0.97
- Odds ratio for probability of achieving ORR versus exposure ([6]; time-averaged AUC until the first best confirmed response, p = 0.13): 0.97 [0.94–1.01]
- Odds ratio for probability of iORR versus exposure ([6]; time-averaged AUC until the first best confirmed response, p = 0.15): 1.09 [0.98–1.23]
